Source: patent US20230151025A1, “SUBSTITUTED THIAZOLOPYRIDINES, SALTS THEREOF AND THEIR USE AS HERBICIDALLY ACTIVE SUBSTANCES” (Bayer Aktiengesellschaft, priority 2020, published 2023)

Key:
Assay type in all cases: in vivo
Veronica persica (VERPE) [1] = test: Herbicidal post-emergence action (B), 1280 g/ha
How it was run: (§1)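 Compounds formulated as wettable powder or emulsion concentrate, with 0.5% additive, sprayed at 600 l/ha onto one-leaf-stage plants grown in sandy loam for 2 to 3 weeks. Damage rated visually against untreated plants roughly 3 weeks later; 0% = like control, 100% = plants died.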

[2] = tested on: Amaranthus retroflexus (AMARE); test: Herbicidal post-emergence action (B), 1280 g/ha; settings: rated visually after about 3 weeks vs untreated controls
How it was run: as §1

Poa annua (POAAN) [3] = test: Herbicidal post-emergence action (B), 1280 g/ha; settings: rated visually after about 3 weeks vs untreated controls
How it was run: as §1

Lolium rigidum (LOLRI) [4] = test: Herbicidal post-emergence action (B), 1280 g/ha; settings: one-leaf stage, rated after about 3 weeks vs untreated controls, 100% activity = the plants have died, 0% = like control plants
How it was run: as §1

[5] = tested on: Echinochloa crus-galli (ECHCG); test: Herbicidal post-emergence action (B), 1280 g/ha; settings: rated visually after about 3 weeks vs untreated controls
How it was run: as §1

[6] = tested on: Alopecurus myosuroides (ALOMY); test: Herbicidal post-emergence action (B), 1280 g/ha; settings: rated visually after about 3 weeks vs untreated controls
How it was run: as §1

[7] = tested on: Kochia scoparia (KCHSC; Bassia scoparia); test: Herbicidal post-emergence action (B), 1280 g/ha
How it was run: as §1

Stellaria media (STEME) [8] = test: Herbicidal post-emergence action (B), 1280 g/ha
How it was run: as §1

Setaria viridis (SETVI) [9] = test: Herbicidal post-emergence action (B), 1280 g/ha; settings: rated visually after about 3 weeks vs untreated controls
How it was run: as §1

Veronica persica (VERPE) [10] = test: Herbicidal pre-emergence action (C), 320 g/ha; settings: ca. 3 weeks
How it was run: (§2)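 Seeds sown in sandy loam; WP or EC formulations sprayed on covering soil pre-emergence at 320 g/ha in 600 l water/ha with 0.5% additive. Greenhouse culture; damage scored visually after ca. 3 weeks versus untreated controls (0% = as control, 100% = plants dead).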

[11] = tested on: Amaranthus retroflexus (AMARE); test: Herbicidal pre-emergence action (C), 320 g/ha; settings: ca. 3 weeks
How it was run: as §2

Lolium rigidum (LOLRI) [12] = test: Herbicidal pre-emergence action (C), 320 g/ha; settings: ca. 3 weeks
How it was run: as §2

[13] = tested on: Echinochloa crus-galli (ECHCG); test: Herbicidal pre-emergence action (C), 320 g/ha; settings: ca. 3 weeks
How it was run: as §2

[14] = tested on: Alopecurus myosuroides (ALOMY); test: Herbicidal pre-emergence action (C), 320 g/ha; settings: ca. 3 weeks
How it was run: as §2

Setaria viridis (SETVI) [15] = test: Herbicidal pre-emergence action (C), 320 g/ha; settings: ca. 3 weeks
How it was run: as §2

Veronica persica (VERPE) [16] = test: Herbicidal pre-emergence action (A), 1280 g/ha; settings: visual grading after ca. 3 weeks vs untreated controls
How it was run: (§3)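 Visual percent damage scored about 3 weeks after treatment relative to untreated pots (100% = complete kill, 0% = no effect). Compounds, as wettable powder or emulsifiable concentrate plus 0.5% additive in 600 l water/ha, were applied to the soil surface over freshly sown seeds in sandy loam, greenhouse-grown.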

[17] = tested on: Digitaria sanguinalis (DIGSA); test: Herbicidal pre-emergence action (A), 1280 g/ha; settings: visual grading after ca. 3 weeks vs untreated controls, 100% = plants have died off, 0% = as control plants
How it was run: as §3

Poa annua (POAAN) [18] = test: Herbicidal pre-emergence action (A), 1280 g/ha; settings: visual grading after ca. 3 weeks vs untreated controls, 100% = plants have died off, 0% = as control plants
How it was run: as §3

Lolium rigidum (LOLRI) [19] = test: Herbicidal pre-emergence action (A), 1280 g/ha; settings: visual grading after ca. 3 weeks vs untreated controls, 100% = plants have died off, 0% = as control plants
How it was run: as §3

[20] = tested on: Echinochloa crus-galli (ECHCG); test: Herbicidal pre-emergence action (A), 1280 g/ha; settings: visual grading after ca. 3 weeks vs untreated controls, 100% = plants have died off, 0% = as control plants
How it was run: as §3

[21] = tested on: Matricaria inodora (MATIN); test: Herbicidal pre-emergence action (A), 1280 g/ha; settings: visual grading after ca. 3 weeks vs untreated controls
How it was run: as §3

[22] = tested on: Alopecurus myosuroides (ALOMY); test: Herbicidal pre-emergence action (A), 1280 g/ha; settings: visual grading after ca. 3 weeks vs untreated controls, 100% = plants have died off, 0% = as control plants
How it was run: as §3

[23] = tested on: Kochia scoparia (KCHSC; Bassia scoparia); test: Herbicidal pre-emergence action (A), 1280 g/ha; settings: visual grading after ca. 3 weeks vs untreated controls
How it was run: as §3

Stellaria media (STEME) [24] = test: Herbicidal pre-emergence action (A), 1280 g/ha; settings: visual grading after ca. 3 weeks vs untreated controls
How it was run: as §3

Setaria viridis (SETVI) [25] = test: Herbicidal pre-emergence action (A), 1280 g/ha; settings: visual grading after ca. 3 weeks vs untreated controls
How it was run: as §3

[26] = tested on: Digitaria sanguinalis (DIGSA); test: Herbicidal pre-emergence action (C), 320 g/ha; settings: ca. 3 weeks
Source text: Seeds of mono- and dicotyledonous weed plants and crop plants were sown, in plastic or organic planting pots, in sandy loam and covered with soil. The compounds according to the invention, formulated in the form of wettable powders (WP) or as emulsifiable concentrates (EC), were applied to the surface of the covering soil as aqueous suspension or emulsion, with the addition of 0.5% of an additive, at an application rate of 600 l of water/ha (converted).
Following treatment, the pots were placed in a greenhouse and kept under optimum growth conditions for the test plants. The visual grading of the damage to the test plants was carried out after ca. 3 weeks in comparison to untreated controls (herbicidal effect in percent (%): 100% effect=plants have died off, 0% effect=as control plants).
Tables C1 to C13 below show the effects of selected compounds of the general formula (I) according to table 1 on various harmful plants and an application rate corresponding to 320 g/ha obtained by the experimental procedure mentioned above.

Veronica persica (VERPE) [27] = test: Herbicidal post-emergence action (D), 320 g/ha; settings: ca. 3 weeks
Source text: (§4) ABUTH: Abutilon theophrasti AGSTE: Agrostis tenuis ALOMY: Alopecurus myosuroides AMARE Amaranthus retroflexus DIGSA: Digitaria sanguinalis ECHCG: Echinochloa crus-galli KCHSC: Kochia scoparia LOLRI: Lolium rigidum MATIN: Matricaria inodora POAAN: Poa annua POLCO: Polygonum convolvulus SETVI: Setaria viridis STEME: Stellaria media VERPE: Veronica persica VIOTR: Viola tricolor
(§5) Seeds of mono- and dicotyledonous weed plants and crop plants were sown, in plastic or organic planting pots, in sandy loam, covered with soil and grown in a greenhouse under controlled growth conditions. 2 to 3 weeks after sowing, the test plants were sprayed in the single-leaf stage. The compounds according to the invention, formulated in form of wettable powders (WP) or as emulsifiable concentrates (EC), were sprayed onto the green plant parts as aqueous suspension or emulsion, with the addition of 0.5% of an additive, at an application rate of 600 l of water/ha (converted). The test plants were placed in the greenhouse for ca. 3 weeks under optimum growth conditions, and then the effect of the preparations was assessed visually in comparison with untreated controls (herbicidal effect in percent (%): 100% effect=plants have died off, 0% effect=as control plants).
(§6) Tables D1 to D13 below show the effects of selected compounds of the general formula (I) according to table 1 on various harmful plants and an application rate corresponding to 320 g/ha obtained by the experimental procedure mentioned above.

[28] = tested on: Amaranthus retroflexus (AMARE); test: Herbicidal post-emergence action (D), 320 g/ha; settings: ca. 3 weeks
Source text: as §4, §5, §6

[29] = tested on: Alopecurus myosuroides (ALOMY); test: Herbicidal post-emergence action (D), 320 g/ha; settings: ca. 3 weeks
Source text: as §4, §5, §6

[30] = tested on: Abutilon theophrasti (ABUTH); test: Herbicidal post-emergence action (B), 1280 g/ha; settings: rated visually after about 3 weeks vs untreated controls
How it was run: as §1

[31] = tested on: Amaranthus retroflexus (AMARE); test: Herbicidal pre-emergence action (A), 1280 g/ha; settings: visual grading after ca. 3 weeks vs untreated controls
How it was run: as §3

[32] = tested on: Abutilon theophrasti (ABUTH); test: Herbicidal pre-emergence action (A), 1280 g/ha; settings: visual grading after ca. 3 weeks vs untreated controls, 100% = plants have died off, 0% = as control plants
How it was run: as §3

[33] = tested on: Polygonum convolvulus (POLCO); test: Herbicidal pre-emergence action (C), 320 g/ha; settings: ca. 3 weeks
How it was run: as §2

[34] = tested on: Digitaria sanguinalis (DIGSA); test: Herbicidal post-emergence action (B), 1280 g/ha; settings: rated visually after about 3 weeks vs untreated controls
How it was run: as §1

[35] = tested on: Matricaria inodora (MATIN); test: Herbicidal post-emergence action (B), 1280 g/ha; settings: rated visually after about 3 weeks vs untreated controls
How it was run: as §1

Compound	herbicidal effect VERPE (Veronica persica (VERPE) [1]) [%]	herbicidal activity AMARE [2] [%]	herbicidal activity POAAN (Poa annua (POAAN) [3]) [%]	LOLRI, activity rated visually (%) (Lolium rigidum (LOLRI) [4])	herbicidal activity ECHCG [5] [%]	herbicidal activity ALOMY [6] [%]	herbicidal effect KCHSC [7] [%]	herbicidal effect STEME (Stellaria media (STEME) [8]) [%]	herbicidal effect AMARE [11] [%]	herbicidal effect LOLRI (Lolium rigidum (LOLRI) [12]) [%]	herbicidal effect ECHCG [13] [%]	herbicidal effect SETVI (Setaria viridis (SETVI) [15]) [%]	DIGSA, herbicidal effect in percent (%) [17] [%]	POAAN, herbicidal effect in percent (%) (Poa annua (POAAN) [18])	LOLRI, herbicidal effect in percent (%) (Lolium rigidum (LOLRI) [19])	ECHCG, herbicidal effect in percent (%) [20] [%]	herbicidal effect MATIN [21] [%]	herbicidal effect KCHSC [23] [%]	herbicidal effect STEME (Stellaria media (STEME) [24]) [%]	herbicidal effect SETVI (Setaria viridis (SETVI) [25]) [%]	also measured
Clc1ccccc1-c1nc2ncsc2cc1Cl [Example I-069]	100	90	100	90	100	100	90	100	90	100	100	100	100	100	90	100	90	90	90	100	herbicidal activity SETVI (Setaria viridis (SETVI) [9]): 90%; herbicidal effect VERPE (Veronica persica (VERPE) [10]): 90%; herbicidal effect ALOMY [14]: 100%; herbicidal effect VERPE (Veronica persica (VERPE) [16]): 90%; ALOMY, herbicidal effect in percent (%) [22]: 100%; herbicidal effect DIGSA [26]: 100%; herbicidal effect VERPE (Veronica persica (VERPE) [27]): 90%; herbicidal effect AMARE [28]: 80%; herbicidal effect ALOMY [29]: 90%
Cc1ccccc1-c1ccc2scnc2n1 [Example I-105]	–	100	100	100	100	–	–	100	–	–	90	–	100	100	100	100	100	100	100	100	herbicidal activity ABUTH [30]: 90%; herbicidal activity SETVI (Setaria viridis (SETVI) [9]): 90%; herbicidal effect AMARE [31]: 90%; ABUTH, herbicidal effect in percent (%) [32]: 90%
Cc1cccc(F)c1-c1nc2ncsc2cc1Cl [Example I-013]	100	100	90	90	100	100	100	100	90	100	100	100	100	100	100	100	90	100	100	100	herbicidal effect VERPE (Veronica persica (VERPE) [10]): 80%; herbicidal effect POLCO [33]: 80%; herbicidal effect ALOMY [14]: 100%; herbicidal effect VERPE (Veronica persica (VERPE) [16]): 90%; herbicidal effect AMARE [31]: 90%; ABUTH, herbicidal effect in percent (%) [32]: 90%; ALOMY, herbicidal effect in percent (%) [22]: 100%; herbicidal effect VERPE (Veronica persica (VERPE) [27]): 80%; herbicidal effect AMARE [28]: 80%; herbicidal effect ALOMY [29]: 80%
Cc1cc2scnc2nc1C12CCCCC1O2 (stereo not drawn) [Example I-151]	100	100	100	–	–	100	100	100	90	90	–	100	100	100	100	100	90	100	100	100	herbicidal effect VERPE (Veronica persica (VERPE) [10]): 90%; herbicidal effect POLCO [33]: 80%; herbicidal effect ALOMY [14]: 100%; herbicidal effect VERPE (Veronica persica (VERPE) [16]): 90%; herbicidal effect AMARE [31]: 100%; ABUTH, herbicidal effect in percent (%) [32]: 90%; ALOMY, herbicidal effect in percent (%) [22]: 100%; herbicidal effect DIGSA [26]: 100%; herbicidal effect VERPE (Veronica persica (VERPE) [27]): 80%; herbicidal effect AMARE [28]: 80%; herbicidal effect ALOMY [29]: 80%
Cc1ccsc1-c1nc2ncsc2cc1Br [Example I-132]	100	90	90	100	100	100	90	100	90	100	100	100	100	100	100	100	90	100	90	100	herbicidal activity DIGSA [34]: 90%; herbicidal activity ABUTH [30]: 90%; herbicidal activity MATIN [35]: 90%; herbicidal activity SETVI (Setaria viridis (SETVI) [9]): 90%; herbicidal effect VERPE (Veronica persica (VERPE) [16]): 100%; herbicidal effect AMARE [31]: 100%; ALOMY, herbicidal effect in percent (%) [22]: 100%
